The source made the active and inactive calls. The rule behind the calls is not given here.
Target: Botulinum neurotoxin type A (Clostridium botulinum (strain Hall / ATCC 3502 / NCTC 13319 / Type A)) (UniProt P0DPI1)
Assay: Botulinum neurotoxin type A light chain protease inhibitors, multiplex microsphere cleavage, dose response confirmation (AID 602176)
Conditions: multiplex microsphere protease substrate cleavage, flow cytometry

Botulinum neurotoxin type A (Clostridium botulinum (strain Hall / ATCC 3502 / NCTC 13319 / Type A)), sequence (P0DPI1 whole entry, looked up): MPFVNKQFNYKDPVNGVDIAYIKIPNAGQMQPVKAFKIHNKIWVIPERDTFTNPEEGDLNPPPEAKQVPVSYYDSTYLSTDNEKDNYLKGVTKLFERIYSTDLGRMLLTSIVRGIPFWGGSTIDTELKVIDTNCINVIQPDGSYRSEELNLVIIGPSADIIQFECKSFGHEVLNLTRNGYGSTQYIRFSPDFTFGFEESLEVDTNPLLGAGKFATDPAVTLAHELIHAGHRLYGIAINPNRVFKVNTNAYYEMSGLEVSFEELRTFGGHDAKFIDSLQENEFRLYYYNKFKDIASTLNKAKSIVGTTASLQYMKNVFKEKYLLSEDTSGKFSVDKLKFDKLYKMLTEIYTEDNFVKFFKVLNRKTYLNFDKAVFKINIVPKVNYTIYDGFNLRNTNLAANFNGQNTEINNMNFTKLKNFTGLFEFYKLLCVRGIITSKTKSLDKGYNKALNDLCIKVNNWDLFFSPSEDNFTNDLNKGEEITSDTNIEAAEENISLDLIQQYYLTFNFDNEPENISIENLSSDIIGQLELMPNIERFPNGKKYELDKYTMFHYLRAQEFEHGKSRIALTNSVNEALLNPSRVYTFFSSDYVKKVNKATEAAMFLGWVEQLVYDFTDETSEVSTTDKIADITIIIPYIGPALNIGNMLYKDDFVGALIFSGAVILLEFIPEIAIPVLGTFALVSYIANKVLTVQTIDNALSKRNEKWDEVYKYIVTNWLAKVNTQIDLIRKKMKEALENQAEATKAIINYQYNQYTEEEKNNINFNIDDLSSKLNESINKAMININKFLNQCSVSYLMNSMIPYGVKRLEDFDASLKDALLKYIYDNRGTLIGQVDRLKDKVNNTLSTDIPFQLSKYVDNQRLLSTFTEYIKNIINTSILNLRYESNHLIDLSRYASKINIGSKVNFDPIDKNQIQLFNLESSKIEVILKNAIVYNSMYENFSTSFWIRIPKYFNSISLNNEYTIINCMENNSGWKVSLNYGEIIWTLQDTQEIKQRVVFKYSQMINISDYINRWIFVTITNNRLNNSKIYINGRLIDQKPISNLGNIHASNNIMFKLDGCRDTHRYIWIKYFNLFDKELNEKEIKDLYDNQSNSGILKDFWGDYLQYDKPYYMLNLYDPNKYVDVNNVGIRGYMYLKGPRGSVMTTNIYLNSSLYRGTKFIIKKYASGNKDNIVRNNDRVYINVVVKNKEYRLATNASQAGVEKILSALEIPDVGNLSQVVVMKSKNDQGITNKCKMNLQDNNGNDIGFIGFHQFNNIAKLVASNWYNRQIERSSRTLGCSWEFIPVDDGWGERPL

## Oc1[nH]c(N=C2N=c3ccccc3=N2)c2ccccc12
  EC50: > 20 µM (inactive)

From PubChem BioAssay AID602176 (NMMLSC, 2012)
